Measurements from PMC10731644, “Toward ^68Ga and ^64Cu Positron Emission Tomography Probes: Is H2dedpa-N,N′-pram the Missing Link for dedpa Conjugation?” (Inorganic Chemistry, 2023).
Like-named read-outs stand apart in the source and are kept apart here. Marks after values point to notes of the source that are not given here.

Columns and labels:
[1] = Complex formation equilibria with Cu(II) (potentiometric–spectrophotometric and in-batch acidic UV titrations); type: physicochemical; details: literature chelators, no reference given for the value; [L] = 10 μM, [M] = 1 μM, pH = 7.4
Method: Protonation constants and metal stability constants were determined through a multitechnique approach. Combined potentiometric–spectrophotometric titrations were carried out using a Metrohm Titrando 809 equipped with a Ross combined electrode and a Metrohm Dosino 800. The glass cell containing the solutions to be titrated was maintained at a constant temperature, 25 °C, and connected with an inlet–outlet tube for nitrogen gas (purified through a 10% NaOH solution) to exclude CO2 prior to and during the titration. Daily electrode calibrations were carried out at proton ion concentration, and the results were analyzed with the Gran[41] procedure to obtain the standard potential (E°) and the ionic product of water pKw at T = 25 °C and I = 0.16 M NaCl. […] The exact amount of acid present was determined by the titration of equimolar solutions of either Cu(II) or Ga(III) and Na2H2EDTA using Gran plotting.[41]
Complex formation equilibria of either Ga(III) or Cu(II) with H2L^1 were studied using two different methods. […] The pH in the most acidic samples was calculated from the H^+ concentration when the pH was below the electrode threshold. From very acidic pH, both Cu(II) and Ga(III) complexes formed, and the first protonated complex species ([Cu(H3L^1)]^3+ and [Ga(H2L^1)]^3+) were determined through the fitting of these experiments with the HypSpec2014 program[42] […]

[2] = cited from earlier work; for pGa: [L] = 10 μM, [M] = 1 μM, pH = 7.4
[3] = cited from earlier work
[4] = cited from earlier work; remark: listed apart in the source
[5] = Complex formation equilibria with Ga(III) (potentiometric–spectrophotometric and in-batch acidic UV titrations); type: physicochemical; details: for pGa, corrected value: from corrected log KML, [L] = 10 μM, [M] = 1 μM, pH = 7.4; for log KML (M = Ga^3+), corrected value: refit of potentiometric curve in competition with [Ga(OH)4]−, I = 0.15 M NaCl, 25 °C (Supporting Information)
Method: Protonation constants and metal stability constants were determined through a multitechnique approach. Combined potentiometric–spectrophotometric titrations were carried out using a Metrohm Titrando 809 equipped with a Ross combined electrode and a Metrohm Dosino 800. The glass cell containing the solutions to be titrated was maintained at a constant temperature, 25 °C, and connected with an inlet–outlet tube for nitrogen gas (purified through a 10% NaOH solution) to exclude CO2 prior to and during the titration. […] The calibrations involved HCl standard being titrated with carbonate-free titrant NaOH(aq) (0.15 M), and the ionic strength was maintained constant to 0.16 M by the addition of a NaCl solution. The NaOH was previously standardized against freshly dried potassium hydrogen phthalate crystals. Copper and gallium metal-ion solutions used in metal complexation experiments were prepared by the dilution of AA standards. The exact amount of acid present was determined by the titration of equimolar solutions of either Cu(II) or Ga(III) and Na2H2EDTA using Gran plotting.[41]
Complex formation equilibria of either Ga(III) or Cu(II) with H2L^1 were studied using two different methods. […] The pH in the most acidic samples was calculated from the H^+ concentration when the pH was below the electrode threshold. From very acidic pH, both Cu(II) and Ga(III) complexes formed, and the first protonated complex species ([Cu(H3L^1)]^3+ and [Ga(H2L^1)]^3+) were determined through the fitting of these experiments with the HypSpec2014 program[42] (Figures S50–S52 and S56–S58 and Table S3). […] Dissociation constants corresponding to the hydrolysis of Ga(III) and Cu(II) aqueous ions included in the calculations were taken from Baes and Mesmer.[46] Complexation of H2L^1 with Ga(III) was further corroborated by the findings of ^1H NMR experiments at different pD values (Figures 3 and S26). Similarly, complexation of H2L^2 with Cu(II) or Ga(III) was studied by in-batch acidic UV experiments in a set of solutions prepared with the experimental conditions [H2L^2] = [Ga^3+] = 1 × 10^–4 M; [H2L^2] = [Cu^2+] = 7 × 10^–4 M, and the pH was adjusted by the addition of different amounts of standardized HCl. The ionic strength was maintained constant at 0.16 M when possible by the addition of NaCl. The first-formed complex species ([Cu(HL^2)]^+, [CuL^2], and [GaL^2]^+) were determined through fitting of the experimental data (Figures S53–S55 and S59–S61 and Table S3). […]

[6] = Protonation constants by combined potentiometric–spectrophotometric, in-batch acidic UV and 1H NMR titrations; type: physicochemical; details: 25 °C, I = 0.16 M NaCl
Method: Protonation constants and metal stability constants were determined through a multitechnique approach. Combined potentiometric–spectrophotometric titrations were carried out using a Metrohm Titrando 809 equipped with a Ross combined electrode and a Metrohm Dosino 800. The glass cell containing the solutions to be titrated was maintained at a constant temperature, 25 °C, and connected with an inlet–outlet tube for nitrogen gas (purified through a 10% NaOH solution) to exclude CO2 prior to and during the titration. Daily electrode calibrations were carried out at proton ion concentration, and the results were analyzed with the Gran[41] procedure to obtain the standard potential (E°) and the ionic product of water pKw at T = 25 °C and I = 0.16 M NaCl. The calibrations involved HCl standard being titrated with carbonate-free titrant NaOH(aq) (0.15 M), and the ionic strength was maintained constant to 0.16 M by the addition of a NaCl solution. The NaOH was previously standardized against freshly dried potassium hydrogen phthalate crystals. Copper and gallium metal-ion solutions used in metal complexation experiments were prepared by the dilution of AA standards. The exact amount of acid present was determined by the titration of equimolar solutions of either Cu(II) or Ga(III) and Na2H2EDTA using Gran plotting.[41]
Protonation equilibria of either H2L^1 or H2L^2 were studied by titrations of solutions containing [H2L^1] = 9.56 × 10^–4 M or [H2L^2] = 5.87 × 10^–4 M at 25 °C and 0.16 M NaCl ionic strength using a potentiometric–spectrophotometric procedure. In each titration (100–150 equilibrium points and pH range 2–11), the electromotive force values were recorded after 2 min of each NaOH addition and the spectrophotometer was synchronized to obtain a UV spectrum for each pH data point. Spectra were recorded in the 200–400 nm wavelength range with a 0.2-cm-path-length optic dip probe connected to a Varian Cary 60 UV–vis spectrophotometer. The obtained spectrophotometric and potentiometric data were analyzed with HypSpec2014([42]) and HyperQuad2013([43]) to obtain the protonation constants and molar absorptivities of the different absorbing species of the ligands (Table 3 and Figures S42–S49 and S51B). […] Additional ^1H NMR titrations were carried out for H2L^1 to better understand the protonation sequence and their assignments (Figures S45 and S46). A set of H2L^1 solutions (4 × 10^–3 M) in D2O were prepared by the addition of DCl or NaOD, and their ^1H NMR spectra were recorded. The pH values of the samples were then measured with a microelectrode (Mettler Toledo), which was calibrated daily at H^+ concentration as described above. The pH was corrected for the deuterium isotopic effect (pD = pHreading + 0.4).[44]

[7] = Table S4 footnote f, ref 8 (SI)
[8] = Table S4 footnote c, ref 5 (SI)
[9] = Table S4 footnote d, ref 6 (SI)
[10] = Table S4 footnote e, ref 7 (SI)

## O=C(O)CN1CCN(CC(=O)O)CCN(CC(=O)O)CCN(CC(=O)O)CC1 [DOTA, 1,4,7,10-tetraazacyclododecane-1,4,7,10-tetraacetic acid]
[1]
  pCu: 16.2
[2]
  log KML (M = Ga^3+): 21.33 ^g
[3]; [7]
  log KHqL, H2L + H+ ⇆ H3L: 4.548 (3)
  log KHqL, H3L + H+ ⇆ H4L: 4.130 (3)
  log KHqL, HL + H+ ⇆ H2L: 9.680 (1)
  log KHqL, L + H+ ⇆ HL: 12.09 (4)
  ∑log KHqL: 30.448
[4]
  log KML (M = Cu^2+): 22.21(1) ^f

## O=C([O-])CN1CCN(CC(=O)[O-])CCN(CC(=O)[O-])CCN(CC(=O)[O-])CC1.[Ga+3] [Ga^III-DOTA]
[2]
  pGa: 18.5
  log KML (M = Ga^3+): 21.33

## O=C(O)c1cccc(CNCCNCc2cccc(C(=O)O)n2)n1 [H2dedpa, 1,2-bis[[(6-carboxypyridin-2-yl)methyl]amino]ethane]
[5]
  pGa, corrected value: 22.2 ^e
  log KML (M = Ga^3+), corrected value: 22.9(1) ^e
[3]; [8]
  log KHqL, H2L + H+ ⇆ H3L: 3.04
  log KHqL, H3L + H+ ⇆ H4L: 2.59
  log KHqL, HL + H+ ⇆ H2L: 6.31
  log KHqL, L + H+ ⇆ HL: 9.00
[3]; [9]
  log KHqL, H2L + H+ ⇆ H3L: 3.08 (2)
  log KHqL, H3L + H+ ⇆ H4L: 2.33 (3)
  log KHqL, HL + H+ ⇆ H2L: 6.18 (2)
  log KHqL, L + H+ ⇆ HL: 8.69 (1)
[4]
  log KML (M = Cu^2+): 19.16(5) ^d
[4]; −log [Mfree] at [L] = 10 μM, [M] = 1 μM, pH = 7.4
  pCu: 18.5 ^d

## O=C(O)CN1CCN(CC(=O)O)CCN(CC(=O)O)CC1 [NOTA, 1,4,7-triazacyclononane-1,4,7-triacetic acid]
[1]
  pCu: 19.2
[2]
  pGa: 27.9 ^g
  log KML (M = Ga^3+): 30.98 ^g
[3]; [10]
  log KHqL, H2L + H+ ⇆ H3L: 3.163(3)
  log KHqL, H3L + H+ ⇆ H4L: 1.955(3)
  log KHqL, HL + H+ ⇆ H2L: 6.032(4)
  log KHqL, L + H+ ⇆ HL: 10.773(7)
  ∑log KHqL: 21.923
[4]
  log KML (M = Cu^2+): 21.6 ^d

## O=C([O-])c1cccc(CNCCNCc2cccc(C(=O)[O-])n2)n1.[Ga+3] [[Ga(dedpa)]^+]
[2]
  log KML (M = Ga^3+): 28.11(8)
[5]
  pGa, corrected value: 22.2
  log KML (M = Ga^3+), corrected value: 22.9(1)

## N,N′-Bis(3-aminopropyl)-N,N′-bis(6-carboxypyridin-2-yl)-1,2-diaminoethane [H2L^1]
[6]
  log KHqL, H2L + H+ ⇆ H3L (log K3): 6.78
  log KHqL, H3L + H+ ⇆ H4L (log K4): 4.23
  log KHqL, H4L + H+ ⇆ H5L (log K5): 2.79
  log KHqL, H5L + H+ ⇆ H6L (log K6): 2.01
  log KHqL, HL + H+ ⇆ H2L (log K2): 9.91
  log KHqL, L + H+ ⇆ HL (log K1): 10.86
